The target in this test is T1, hFXR (Homo sapiens, UniProt Q96RI1).
T1 construct: expressed in transfected cells; host or cells: CV-1 cells
T1 sequence (Q96RI1 1-486): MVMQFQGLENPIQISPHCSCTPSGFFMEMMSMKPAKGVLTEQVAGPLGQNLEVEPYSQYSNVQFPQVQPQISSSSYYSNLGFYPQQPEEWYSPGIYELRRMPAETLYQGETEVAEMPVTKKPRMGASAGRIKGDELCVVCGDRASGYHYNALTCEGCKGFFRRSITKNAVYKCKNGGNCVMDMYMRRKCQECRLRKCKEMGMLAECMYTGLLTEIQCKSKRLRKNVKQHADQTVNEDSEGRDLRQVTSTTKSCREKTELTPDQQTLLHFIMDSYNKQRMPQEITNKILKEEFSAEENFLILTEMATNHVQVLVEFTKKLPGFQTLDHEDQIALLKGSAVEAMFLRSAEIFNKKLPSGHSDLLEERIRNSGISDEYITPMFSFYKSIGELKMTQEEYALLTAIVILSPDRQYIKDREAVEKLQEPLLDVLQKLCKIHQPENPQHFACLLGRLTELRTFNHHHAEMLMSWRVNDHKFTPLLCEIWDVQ
T1 sequence (P19793 1-462 partner): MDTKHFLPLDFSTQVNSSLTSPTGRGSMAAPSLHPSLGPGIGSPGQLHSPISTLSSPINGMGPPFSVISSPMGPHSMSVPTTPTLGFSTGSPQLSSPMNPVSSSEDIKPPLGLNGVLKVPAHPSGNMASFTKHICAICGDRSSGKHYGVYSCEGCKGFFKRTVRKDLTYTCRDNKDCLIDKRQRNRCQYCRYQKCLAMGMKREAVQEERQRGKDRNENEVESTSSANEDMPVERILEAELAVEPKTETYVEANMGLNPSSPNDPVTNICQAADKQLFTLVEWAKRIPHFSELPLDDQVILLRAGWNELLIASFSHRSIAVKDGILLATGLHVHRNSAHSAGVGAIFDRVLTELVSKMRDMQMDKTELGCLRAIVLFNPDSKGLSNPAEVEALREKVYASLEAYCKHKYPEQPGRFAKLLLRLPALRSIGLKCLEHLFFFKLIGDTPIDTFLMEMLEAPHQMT
Kind of test: In Vitro FXR Assay (TK): TK-ECRE-luc reporter in transfected CV-1 cells. The format is cell-based. To be noted: 18 hrs, luminescence, maximum efficacy of <25% of the Fexarmine control classified as '+'. The method in brief: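 Transiently transfected monkey CV-1 cells (hFXR, hRXR, TK-ECRE-luciferase, YFP control plasmid), held in stripped-serum DMEM, received compound dilutions from DMSO for 18 h at 37 °C. Activity was taken from luminescence of the cell lysates.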

The term EC50 denotes the concentration at which the effect is half-maximal. Lower therefore signals a more potent agent.

As for `COc1ccc([C@H]2CC[C@H](CN(c3cccc(-c4cnn(C5CC5)c4)c3)C(=O)[C@H]3CC[C@H](OC(=O)NC4CNC4)CC3)CC2)cc1C` [Compound 4.18, trans-4-((3-(1-Cyclopropyl-1H-pyrazol-4-yl)phenyl)((trans-4-(4-methoxy-3-methylphenyl)cyclohexyl)methyl)carbamoyl)cyclohexyl azetidin-3-ylcarbamate], the EC50 was not above 0.25 µM.

In turn, `COc1ccc([C@H]2CC[C@H](CN(c3cccc(-c4cnc(C5CC5)s4)c3)C(=O)[C@H]3CC[C@H](NC(=O)Cc4c[nH]cn4)CC3)CC2)cc1C` [Compound 31.15, trans-4-(2-(1H-Imidazol-4-yl)acetamido)-N-(3-(2-cyclopropylthiazol-5-yl)phenyl)-N-((trans-4-(4-methoxy-3-methylphenyl)cyclohexyl)methyl) cyclohexanecarboxamide] registered an EC50 not above 0.25 µM.

In turn, `COc1ccc(C23CCC(CN(c4cccc(-c5cnn(C6CC6)c5)c4)C(=O)[C@H]4CC[C@H](OC(N)=O)CC4)(CC2)CC3)cc1C` [Compound 1.08, 4-((3-(1-Cyclopropyl-1H-pyrazol-4-yl)phenyl)((4-(4-methoxy-3-methylphenyl)bicyclo[2.2.2]octan-1-yl)methyl)carbamoyl)cyclohexyl trans-carbamate] showed an EC50 not above 0.25 µM.

Consider `COc1ccc([C@H]2CC[C@H](CN(c3cc(-c4cnn(C(C)C)c4)ccn3)C(=O)[C@H]3CC[C@H](OC(=O)NCC(C)(C)O)CC3)CC2)nc1C` [Compound 6.92, trans-4-((4-(1-Isopropyl-1H-pyrazol-4-yl)pyridin-2-yl)((trans-4-(5-methoxy-6-methylpyridin-2-yl)cyclohexyl)methyl)carbamoyl)cyclohexyl (2-hydroxy-2-methylpropyl)carbamate], for which the EC50 is not above 0.25 µM.

In turn, `COc1ccc([C@H]2CC[C@H](CN(c3cccc(-c4cnn(C5CC5)c4)c3)C(=O)[C@H]3CC[C@H](OC(=O)N4CC(O)C4)CC3)CC2)nc1C#N` [Compound 7.33, trans-4-(((trans-4-(6-Cyano-5-methoxypyridin-2-yl)cyclohexyl)methyl)(3-(1-cyclopropyl-1H-pyrazol-4-yl)phenyl)carbamoyl) cyclohexyl 3-hydroxyazetidine-1-carboxylate] registered a 50% effective concentration (EC50) not above 0.25 µM.

The compound `CNC(=O)O[C@H]1CC[C@H](C(=O)N(C[C@H]2CC[C@H](c3ccc(OC)c(C)c3)CC2)c2cccc(-c3ccc(N(C)C)nc3)c2)CC1` [Compound 5.36, trans-4-((3-(6-(Dimethylamino)pyridine-3-yl)phenyl)((trans-4-(4-methoxy-3-methylphenyl)cyclohexyl)methyl)carbamoyl)cyclohexyl methylcarbamate] came in with an EC50 not above 0.25 µM.

The compound `COc1ccc([C@H]2CC[C@H](CN(c3cc(-c4coc(C5CC5)n4)ccn3)C(=O)[C@H]3CC[C@H](OC(=O)N4CC(OC)C4)CC3)CC2)nc1C` [Compound 7.76, trans-4-((4-(2-Cyclopropyloxazol-4-yl)pyridine-2-yl)((trans-4-(5-methoxy-6-methylpyridin-2-yl)cyclohexyl)methyl)carbamoyl)cyclohexyl 3-methoxyazetidine-1-carboxylate] showed an EC50 not above 0.25 µM.

The compound `COc1ccc([C@H]2CC[C@H](CN(c3cc(-c4coc(C5CC5)n4)ccn3)C(=O)[C@H]3CC[C@H](OC(=O)NCC(C)(O)C(C)C)CC3)CC2)nc1C` (stereo partly drawn) [Compound 6.68, trans-4-((4-(2-Cyclopropyloxazol-4-yl)pyridin-2-yl)((trans-4-(5-methoxy-6-methylpyridin-2-yl)cyclohexyl)methyl)carbamoyl)cyclohexyl (2-hydroxy-2,3-dimethylbutyl)carbamate] had an EC50 not above 0.25 µM.

Take `COc1ccc([C@H]2CC[C@H](CN(c3cccc(-c4cnn(C5CC5)c4)c3)C(=O)[C@H]3CC[C@H](NC(C)=O)CC3)CC2)cc1C` [Compound 26.01, trans-4-Acetamido-N-(3-(1-cyclopropyl-1H-pyrazol-4-yl)phenyl)-N-((trans-4-(4-methoxy-3-methylphenyl)cyclohexyl)methyl)cyclohexanecarboxamide]: the half-maximal effective concentration (EC50) is not above 0.25 µM.

In the case of `CCCCCOC(=O)[C@H]1CC[C@H](C(=O)N(C[C@H]2CC[C@H](c3ccc(OC)c(C)c3)CC2)c2cccc(-c3cnn(C4CC4)c3)c2)CC1` [Compound 22.03, trans-Pentyl 4-((3-(1-cyclopropyl-1H-pyrazol-4-yl)phenyl)((trans-4-(4-methoxy-3-methylphenyl)cyclohexyl)methyl)carbamoyl) cyclohexanecarboxylate], the half-maximal effective concentration (EC50) is not below 1 µM.

Consider `COc1ncc(-c2cccc(N(C[C@H]3CC[C@H](c4ccc(OC)c(C)c4)CC3)C(=O)[C@H]3CC[C@H](C(=O)NCCO)CC3)c2)s1` [Compound 24.03], for which the EC50 is not above 0.25 µM.

In turn, `COc1ccc([C@H]2CC[C@H](CN(c3cc(-c4cnn(C(C)C)c4)ccn3)C(=O)[C@H]3CC[C@H](OC(=O)N4CC(OC(C)C)C4)CC3)CC2)nc1C` [Compound 7.56, trans-4-((4-(1-Isopropyl-1H-pyrazol-4-yl)pyridin-2-yl)((trans-4-(5-methoxy-6-methylpyridin-2-yl)cyclohexyl)methyl)carbamoyl)cyclohexyl 3-isopropoxyazetidine-1-carboxylate] came in with an EC50 not above 0.25 µM.

On to `COc1ccc([C@H]2CC[C@H](CN(c3cccc(-c4cnn(C5CC5)c4)c3)C(=O)[C@H]3CC[C@H](OC(=O)NC(CO)CO)CC3)CC2)cc1C` [Compound 6.11, trans-4-((3-(1-Cyclopropyl-1H-pyrazol-4-yl)phenyl)((trans-4-(4-methoxy-3-methylphenyl)cyclohexyl)methyl)carbamoyl)cyclohexyl (1,3-dihydroxypropan-2-yl)carbamate], for which the EC50 was not above 0.25 µM.

Regarding `COc1ccc([C@H]2CC[C@H](CN(c3cccc(-c4cnc(C5CC5)s4)c3)C(=O)[C@H]3CC[C@H](C(=O)O)CC3)CC2)cc1C#N` [Compound 17.11, trans-4-(((trans-4-(3-Cyano-4-methoxyphenyl)cyclohexyl)methyl)(3-(2-4-cyclopropylthiazol-5-yl)phenyl)carbamoyl)cyclohexanecarboxylic acid], the 50% effective concentration (EC50) is not above 0.25 µM.

`COc1ccc([C@H]2CC[C@H](CN(c3cc(-c4cnc(C(C)C)s4)ccn3)C(=O)[C@H]3CC[C@H](OC(=O)N4CC(O)C4)CC3)CC2)cc1C` [Compound 7.04, trans-4-((4-(2-Isopropylthiazol-5-yl)pyridin-2-yl)((trans-4-(4-methoxy-3-methylphenyl)cyclohexyl)methyl)carbamoyl)cyclohexyl 3-hydroxyazetidine-1-carboxylate] registered a 50% effective concentration (EC50) not above 0.25 µM.

In the case of `CCCOC(=O)[C@H]1CC[C@H](C(=O)N(C[C@H]2CC[C@H](c3ccc(OC)c(C)c3)CC2)c2cccc(-c3cnn(C4CC4)c3)c2)CC1` [Compound 22, trans-Propyl 4-((3-(1-cyclopropyl-1H-pyrazol-4-yl)phenyl)((trans-4-(4-methoxy-3-methylphenyl)cyclohexyl)methyl)carbamoyl)cyclohexanecarboxylate], the half-maximal effective concentration (EC50) is not above 0.25 µM.

In turn, `COc1ccc([C@H]2CC[C@H](CN(c3cccc(-c4coc(C5CC5)n4)c3)C(=O)[C@H]3CC[C@H](C(=O)OC)CC3)CC2)nc1C#N` [Compound 18.24, trans-Methyl 4-(((trans-4-(6-cyano-5-methoxypyridin-2-yl)cyclohexyl)methyl)(3-(2-cyclopropyloxazol-4-yl)phenyl)carbamoyl) cyclohexanecarboxylate] had an EC50 not above 0.25 µM.

The record behind these values is patent US20220089575A1, “FARNESOID X RECEPTOR AGONISTS AND USES THEREOF” (Metacrine, Inc., priority 2017, published 2022).
